Patent publication US20170369414A1, “O-Quinone Compounds as Agents Neutralising Nitric Oxide” (Institut des Substances Végétales, priority 2015, published 2017)

test: Method for evaluating the neutralization of nitric oxide (amperometric probe, real time); settings: phosphate buffer pH 7.4, 25° C., between T1 and T2=T1+30 s, corrected for solvent control
Experimental: For this, the nitric oxide is prepared in a separated container by achieving reduction of sodium nitrite with ferrous sulfate and carry away with a nitrogen gas stream into another container containing the product to be tested in solution in a buffer. In this solution, is placed an amperometric probe which measures in real time the current produced by the presence of nitric oxide in solution.
Nitric oxide is prepared extemporaneously in a container A, obturated with a flexible polymeric plug through which pass an entering tubing and an exiting tubing, with an inner diameter comprised between 50 μm and 300 μm, but particularly of 100 μm (cf. FIG. 1), with a volume comprised between 10 ml and 100 ml, but particularly of 30 ml, by adding a volume comprised between 0.1 and 2 ml, but particularly of 0.5 ml of an aqueous solution of sodium nitrite (NaNO2, ref. Sigma-Aldrich 237213) at a concentration comprised between 0.10% and 2.00% but particularly of 0.70%, at a volume comprised between 5 ml and 80 ml of the following aqueous solution:
The container B in which is measured the nitric oxide is a container opaque to light, with a double jacket allowing circulation of water maintaining the temperature at 25° C., obturated with a plug through which pass the tubing stemming from the container A and an exhaust tubing (cf. FIG. 1) with a volume comprised between 10 ml and 100 ml, preferably 30 ml which receives a volume comprised between 5 ml and 80 ml, preferably 20 ml, of an aqueous solution of phosphate buffer at pH 7.4.
Once they are mixed, the solutions are stirred for the whole period of the measurement with a magnetic stirrer, in container A and in container B.
Nitrogen gas is admitted at a flow rate comprised between 20 ml/min and 120 ml/min, preferably 80 ml/min in the bottom of the container A. The nitrogen thereby carries away the nitric oxide through the exiting tubing of container A as far as into container B where it is measured with a device provided for this purpose equipped with an amperometric probe provided with a specific membrane (apparatus of ref. TBR 1025 from World Precision Instruments, probe ISO-NOP). The probe thereby delivers a variable current between 10 and 1,000 nA proportional to the concentration of nitric oxide in the tested solution, of the order of magnitude of μM. The electric current produced by the probe under the influence of nitric oxide is recorded with a suitable device.
Before any measurement, the probe is calibrated by measuring the current produced by releasing known increasing amounts of nitric oxide. It is thus checked that there exists a linear relationship between the electric current produced by the probe and the molar concentration of nitric oxide and the correspondence between this electric current and the molar concentration of nitric oxide is determined. For this, 20 ml of the following aqueous solution is placed in the container B disconnected from the container A during the calibration period:
50 μl, 100 μl, 150 μl and 200 μl of a solution of sodium nitrite (NaNO2, ref. Sigma-Aldrich 237213) are then successively added to a concentration of 360 μM.
The curve giving the correspondence between the nitric oxide concentration in the reaction medium and the electric intensity produced by the probe expressed in nA is plotted for each addition of the nitric oxide solution.
During a typical measurement, 20 ml of the ferrous sulfate solution are placed in the container A and 20 ml of phosphate buffer at pH 7.4 are placed in the container B. In the container A, nitrogen gas is admitted for 10 mins, which passes in transit towards the container B, in order to remove the dissolved oxygen present in the solutions of the containers A and B. After these 10 mins, the recording of the measurement of nitric oxide is launched.
At time T0, the sodium nitrite solution is injected into the container A through the flexible polymeric plug by means of a syringe equipped with a needle.

| Compound | E, neutralization effect of nitric oxide (nitric oxide neutralized per second and per mg of product) |
| --- | --- |
| O=C(O)/C=C/c1ccc(O)c(O)c1 [Caffeic acid] | 0.957 µM/s/mg |
| O=c1cc(-c2ccc(O)c(O)c2)oc2cc(O)cc(O)c12 [Luteolin] | 0.174 µM/s/mg |
| O.O.O=c1c(O)c(-c2ccc(O)c(O)c2)oc2cc(O)cc(O)c12 [Quercetin, Quercetin dihydrate] | 0.087 µM/s/mg |
| O=C(/C=C/c1ccc(O)c(O)c1)O[C@H](Cc1ccc(O)c(O)c1)C(=O)O [Rosmarinic acid] | 0.043 µM/s/mg |
| C[C@@H]1O[C@@H](O[C@@H]2[C@@H](O)[C@H](OCCc3ccc(O)c(O)c3)O[C@H](CO)[C@H]2OC(=O)/C=C/c2ccc(O)c(O)c2)[C@H](O)[C@H](O)[C@H]1O [Verbascoside] | 0.058 µM/s/mg |
| O=C(O)/C=C\C1=CC(=O)C(=O)C=C1 [caffeoyl-quinone, ortho-quinone of caffeic acid] | 24.36 µM/s/mg |
| O=C(O)/C=C/c1ccc(O)cc1 [p-coumaric acid] | 0.13 µM/s/mg |
| (+) catechin hydrate | 0.13 µM/s/mg |
